Reference: patent US12539292B2, “BRM targeting compounds and associated methods of use” (Arvinas Operations, Inc., priority 2018, dated 2026)
Where two headings read alike, the source gives them in different places.

Biological target: T1, BRM (Homo sapiens, UniProt P51531)
T1 construct: In-Cell Western Screen of BRM Degradation in SW1573 Cells; endogenous in cells; host or cells: SW1573
Assay: In-cell Western screen of BRM degradation in SW1573 cells (Dmax and DC50)
Assay type: cell-based
Summary of the method: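 BRM levels were read by LI-COR in-cell Western after two-channel (800/680 nm) immunostaining of fixed, Triton-permeabilised SW1573 cells.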

[1] = BRM degradation, SW1573 cells, read-out: DC50
[2] = BRM degradation, SW1573 cells, read-out: Dmax (% degraded)
[3] = degradation of BRM, read-out: BRM DC50

T1 sequence (P51531 whole entry): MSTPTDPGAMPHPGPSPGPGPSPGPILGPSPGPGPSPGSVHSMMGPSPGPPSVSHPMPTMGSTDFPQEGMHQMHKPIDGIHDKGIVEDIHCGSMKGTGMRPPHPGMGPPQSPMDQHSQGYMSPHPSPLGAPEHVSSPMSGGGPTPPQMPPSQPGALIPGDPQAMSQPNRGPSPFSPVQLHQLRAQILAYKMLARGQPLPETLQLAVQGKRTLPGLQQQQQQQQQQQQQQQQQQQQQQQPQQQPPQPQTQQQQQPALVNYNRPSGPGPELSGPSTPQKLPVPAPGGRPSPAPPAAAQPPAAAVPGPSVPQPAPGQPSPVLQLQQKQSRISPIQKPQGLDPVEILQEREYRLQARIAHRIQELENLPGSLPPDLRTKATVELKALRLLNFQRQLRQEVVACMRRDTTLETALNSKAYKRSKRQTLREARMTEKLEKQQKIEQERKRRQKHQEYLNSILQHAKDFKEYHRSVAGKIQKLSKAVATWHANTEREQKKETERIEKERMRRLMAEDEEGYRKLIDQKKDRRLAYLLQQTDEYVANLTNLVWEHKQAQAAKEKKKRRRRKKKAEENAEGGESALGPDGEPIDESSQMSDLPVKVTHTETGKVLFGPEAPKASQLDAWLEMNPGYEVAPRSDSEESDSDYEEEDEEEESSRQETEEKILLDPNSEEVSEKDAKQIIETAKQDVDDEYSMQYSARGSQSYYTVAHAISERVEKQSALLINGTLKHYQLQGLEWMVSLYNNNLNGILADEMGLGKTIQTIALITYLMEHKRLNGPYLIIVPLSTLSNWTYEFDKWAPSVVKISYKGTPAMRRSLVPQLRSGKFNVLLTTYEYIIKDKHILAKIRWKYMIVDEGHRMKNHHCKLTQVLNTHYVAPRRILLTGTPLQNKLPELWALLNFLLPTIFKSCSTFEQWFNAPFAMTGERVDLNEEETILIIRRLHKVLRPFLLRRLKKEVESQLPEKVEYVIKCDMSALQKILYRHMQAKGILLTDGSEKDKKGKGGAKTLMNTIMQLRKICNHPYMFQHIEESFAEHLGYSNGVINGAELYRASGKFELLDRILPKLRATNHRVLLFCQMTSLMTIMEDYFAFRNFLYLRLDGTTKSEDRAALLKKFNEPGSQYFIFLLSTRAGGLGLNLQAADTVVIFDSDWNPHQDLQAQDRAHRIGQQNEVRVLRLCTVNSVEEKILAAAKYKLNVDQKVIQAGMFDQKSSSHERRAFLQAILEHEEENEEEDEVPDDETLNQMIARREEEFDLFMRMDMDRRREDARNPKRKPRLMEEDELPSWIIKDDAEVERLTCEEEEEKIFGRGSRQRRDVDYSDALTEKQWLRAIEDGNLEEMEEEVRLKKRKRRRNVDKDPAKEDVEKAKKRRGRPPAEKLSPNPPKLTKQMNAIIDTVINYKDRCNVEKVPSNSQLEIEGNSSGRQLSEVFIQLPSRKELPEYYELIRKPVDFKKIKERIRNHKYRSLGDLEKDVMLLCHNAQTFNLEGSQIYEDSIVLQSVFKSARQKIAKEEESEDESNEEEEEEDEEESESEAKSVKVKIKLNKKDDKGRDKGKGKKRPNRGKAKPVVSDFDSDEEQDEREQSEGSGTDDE

Structure (SMILES) | DC50 [1] | Dmax [2] | further results
Cc1ncsc1-c1ccc([C@H](C)NC(=O)[C@@H]2C[C@@H](O)CN2C(=O)[C@@H](c2cc(OCCOCCOCCOCCn3cc(-c4cc(-c5ccccc5O)nnc4N)cn3)no2)C(C)C)cc1 [compound 182, (2S,4R)-1-((R)-2-(3-(2-(2-(2-(2-(4-(3-amino-6-(2-hydroxyphenyl)pyridazin-4-yl)-1H-pyrazol-1-yl)ethoxy)ethoxy)ethoxy)ethoxy)isoxazol-5-yl)-3-methylbutanoyl)-4-hydroxy-N-((S)-1-(4-(4-methylthiazol-5-yl)phenyl)ethyl)pyrrolidine-2-carboxamide] | 0.0025 to 0.01 µM |  | Dmax (BRM degradation, SW1573 cells, tested at the top concentration of between 0.3 and 10 μM, read-out: Dmax (%) (% degraded)): > 75%
Cc1ncsc1-c1ccc([C@H](C)NC(=O)[C@@H]2C[C@@H](O)CN2C(=O)[C@@H](c2cc(OCCN3CC[C@@H](OCCc4cc(N5C6CCC5CN(c5cc(-c7ccccc7O)nnc5N)C6)ccn4)C[C@@H]3C)no2)C(C)C)cc1 (racemic) [compound 567, (2S,4R)-1-((2R)-2-(3-(2-((2S,4R)-4-(2-(4-(3-(3-amino-6-(2-hydroxyphenyl)pyridazin-4-yl)-3,8-diazabicyclo[3.2.1]octan-8-yl)pyridin-2-yl)ethoxy)-2-methylpiperidin-1-yl)ethoxy)isoxazol-5-yl)-3-methylbutanoyl)-4-hydroxy-N-((S)-1-(4-(4-methylthiazol-5-yl)phenyl)ethyl) pyrrolidine-2-carboxamide] |  |  | Dmax (BRM degradation, SW1573 cells, Table 2D, read-out: **Dmax (%) (% degraded)): > 75%; DC50 (BRM degradation, SW1573 cells, Table 2D, read-out: *DC50): 0.0025 to 0.01 µM
CC(C)[C@@H](C(=O)N1C[C@H](O)C[C@H]1C(=O)N[C@@H](C)c1ccc(C2(F)CC2)cc1)c1cc(N2CCC(CN3CCC(O[C@H]4C[C@H](Oc5cc(N6C7CCC6CN(c6cc(-c8ccccc8O)nnc6N)C7)ccn5)C4)CC3)CC2)no1 [compound 713, (2S,4R)-1-((2R)-2-(3-(4-((4-((1r,3r)-3-((4-(3-(3-amino-6-(2-hydroxyphenyl)pyridazin-4-yl)-3,8-diazabicyclo[3.2.1]octan-8-yl)pyridin-2-yl)oxy)cyclobutoxy)piperidin-1-yl)methyl)piperidin-1-yl)isoxazol-5-yl)-3-methylbutanoyl)-N-((S)-1-(4-(1-fluorocyclopropyl)phenyl)ethyl)-4-hydroxypyrrolidine-2-carboxamide] | 0.0025 to 0.01 µM | > 75% | 
Cc1ncsc1-c1ccc([C@H](C)NC(=O)[C@@H]2C[C@@H](O)CN2C(=O)[C@@H](c2cc(N3CCC(CN4CCC(O[C@H]5C[C@H](N6CCC(C(C)n7cc(-c8cc(-c9ccccc9O)nnc8N)cn7)CC6)C5)CC4)CC3)no2)C(C)C)cc1 (stereo partly drawn) [compound 648, (2S,4R)-1-((2R)-2-(3-(4-((4-((1r,3r)-3-(4-(1-(4-(3-amino-6-(2-hydroxyphenyl)pyridazin-4-yl)-1H-pyrazol-1-yl)ethyl)piperidin-1-yl)cyclobutoxy)piperidin-1-yl)methyl)piperidin-1-yl)isoxazol-5-yl)-3-methylbutanoyl)-4-hydroxy-N-((S)-1-(4-(4-methylthiazol-5-yl)phenyl)ethyl)pyrrolidine-2-carboxamide] | < 0.0025 µM | > 75% | 
Cc1ncsc1-c1ccc([C@H](C)NC(=O)[C@@H]2C[C@@H](O)CN2C(=O)[C@H](c2cc(N3CCCC(CN4CCC(O[C@H]5C[C@H](Oc6cc(N7C8CCC7CN(c7cc(-c9ccccc9O)nnc7N)C8)ccn6)C5)CC4)C3)no2)C(C)C)cc1 (stereo partly drawn) [compound 655, (2S,4R)-1-((2S)-2-(3-(3-((4-((1r,3S)-3-((4-(3-(3-amino-6-(2-hydroxyphenyl)pyridazin-4-yl)-3,8-diazabicyclo[3.2.1]octan-8-yl)pyridin-2-yl)oxy)cyclobutoxy)piperidin-1-yl)methyl)piperidin-1-yl)isoxazol-5-yl)-3-methylbutanoyl)-4-hydroxy-N-((S)-1-(4-(4-methylthiazol-5-yl)phenyl)ethyl)pyrrolidine-2-carboxamide] | > 0.03 µM |  | 
Cc1ncsc1-c1ccc([C@@H](C)NC(=O)[C@H]2C[C@H](O)CN2C(=O)[C@H](c2cc(OCCN3CCC(O)(CN4CC(Oc5cc(N6C7CCC6CN(c6cc(-c8ccccc8O)nnc6N)C7)ccn5)C4)CC3)no2)C(C)C)cc1 (mixture of isomers) [compound 446, rac-(2R,4S)-1-((2S)-2-(3-(2-(4-((3-((4-(3-(3-amino-6-(2-hydroxyphenyl)pyridazin-4-yl)-3,8-diazabicyclo[3.2.1]octan-8-yl)pyridin-2-yl)oxy)azetidin-1-yl)methyl)-4-hydroxypiperidin-1-yl)ethoxy)isoxazol-5-yl)-3-methylbutanoyl)-4-hydroxy-N-((R)-1-(4-(4-methylthiazol-5-yl)phenyl)ethyl)pyrrolidine-2-carboxamide] |  |  | DC50 [3]: > 0.03 µM
Cc1ncsc1-c1ccc([C@H](C)NC(=O)[C@@H]2C[C@@H](O)CN2C(=O)[C@@H](c2cc(N3CCC(CN4CCC(O[C@H]5C[C@H](Oc6cc(N7CCN(c8cc(-c9ccccc9O)nnc8N)CC7)ccn6)C5)CC4)CC3)no2)C(C)C)cc1 [compound 693, (2S,4R)-1-((R)-2-(3-(4-((4-((1r,3r)-3-((4-(4-(3-amino-6-(2-hydroxyphenyl)pyridazin-4-yl)piperazin-1-yl)pyridin-2-yl)oxy)cyclobutoxy)piperidin-1-yl)methyl)piperidin-1-yl)isoxazol-5-yl)-3-methylbutanoyl)-4-hydroxy-N-((S)-1-(4-(4-methylthiazol-5-yl)phenyl)ethyl)pyrrolidine-2-carboxamide] |  |  | DC50 (BRM degradation, SW1573 cells): < 0.0025 µM
COC[C@@H](NC(=O)[C@@H]1C[C@@H](O)CN1C(=O)[C@@H](c1cc(N2CCC(CN3CCC(O[C@H]4C[C@H](Oc5cc(N6C7CCC6CN(c6cc(-c8ccccc8O)nnc6N)C7)ccn5)C4)CC3)CC2)no1)C(C)C)c1ccc(-c2scnc2C)cc1 [compound 667, (2S,4R)-1-((2R)-2-(3-(4-((4-((1r,3r)-3-((4-(3-(3-amino-6-(2-hydroxyphenyl)pyridazin-4-yl)-3,8-diazabicyclo[3.2.1]octan-8-yl)pyridin-2-yl)oxy)cyclobutoxy)piperidin-1-yl)methyl)piperidin-1-yl)isoxazol-5-yl)-3-methylbutanoyl)-4-hydroxy-N-((S)-2-methoxy-1-(4-(4-methylthiazol-5-yl)phenyl)ethyl)pyrrolidine-2-carboxamide] | 0.01 to 0.03 µM | > 75% | 
Cc1ncsc1-c1ccc(CNC(=O)[C@@H]2C[C@@H](O)CN2C(=O)[C@@H](c2cc(OCCOCCOCCCCN3CCOC4(CCN(c5cc(-c6ccccc6O)nnc5N)CC4)C3)no2)C(C)C)cc1 [compound 37, (2S,4R)-1-((R)-2-(3-(2-(2-(4-(9-(3-amino-6-(2-hydroxyphenyl)pyridazin-4-yl)-1-oxa-4,9-diazaspiro[5.5]undecan-4-yl)butoxy)ethoxy)ethoxy)isoxazol-5-yl)-3-methylbutanoyl)-4-hydroxy-N-(4-(4-methylthiazol-5-yl)benzyl)pyrrolidine-2-carboxamide] | 0.0025 to 0.01 µM |  | Dmax (BRM degradation, SW1573 cells, when tested at the top concentration of between 0.3 and 10 μM, read-out: Dmax (%) (% degraded)): > 75%
Cc1ncsc1-c1ccc([C@H](COCC(C)C)NC(=O)[C@@H]2C[C@@H](O)CN2C(=O)[C@H](c2cc(OCCN3CCN(CCOc4cc(N5C6CCC5CN(c5cc(-c7ccccc7O)nnc5N)C6)ccn4)CC3)no2)C(C)C)cc1 [compound 291, (2S,4R)-1-((2S)-2-(3-(2-(4-(2-((4-(3-(3-amino-6-(2-hydroxyphenyl)pyridazin-4-yl)-3,8-diazabicyclo[3.2.1]octan-8-yl)pyridin-2-yl)oxy)ethyl)piperazin-1-yl)ethoxy)isoxazol-5-yl)-3-methylbutanoyl)-4-hydroxy-N-((R)-2-isobutoxy-1-(4-(4-methylthiazol-5-yl)phenyl)ethyl)pyrrolidine-2-carboxamide] | > 0.03 µM |  | 
Cc1ncsc1-c1ccc([C@@H](CCC#N)NC(=O)[C@@H]2C[C@@H](O)CN2C(=O)[C@@H](c2cc(N3CCC(CN4CCC(O[C@H]5C[C@H](Oc6cc(N7C8CCC7CN(c7cc(-c9ccccc9O)nnc7N)C8)ccn6)C5)CC4)CC3)no2)C(C)C)cc1 [compound 673, (2S,4R)-1-((2R)-2-(3-(4-((4-((1r,3r)-3-((4-(3-(3-amino-6-(2-hydroxyphenyl)pyridazin-4-yl)-3,8-diazabicyclo[3.2.1]octan-8-yl)pyridin-2-yl)oxy)cyclobutoxy)piperidin-1-yl)methyl)piperidin-1-yl)isoxazol-5-yl)-3-methylbutanoyl)-N-((R)-3-cyano-1-(4-(4-methylthiazol-5-yl)phenyl)propyl)-4-hydroxypyrrolidine-2-carboxamide] | 0.01 to 0.03 µM | 50 to 75% | 
Cc1ncsc1-c1ccc([C@H](C)NC(=O)[C@@H]2C[C@@H](O)CN2C(=O)C(c2cc(O[C@H]3C[C@H](N4CCC(O[C@H]5C[C@H](Oc6cc(N7C8CCC7CN(c7cc(-c9ccccc9O)nnc7N)C8)ccn6)C5)CC4)C3)no2)C(C)C)cc1 (stereo partly drawn) [compound 411, (2S,4R)-1-(2-(3-((1R,3S)-3-(4-((1r,3R)-3-((4-(3-(3-amino-6-(2-hydroxyphenyl)pyridazin-4-yl)-3,8-diazabicyclo[3.2.1]octan-8-yl)pyridin-2-yl)oxy)cyclobutoxy)piperidin-1-yl)cyclobutoxy)isoxazol-5-yl)-3-methylbutanoyl)-4-hydroxy-N-((S)-1-(4-(4-methylthiazol-5-yl)phenyl)ethyl)pyrrolidine-2-carboxamide] |  |  | Dmax (SW1573, % degraded, when tested at the top concentration of between 0.3 and 10 μM, read-out: BRM Dmax (%)): > 75%; DC50 [3]: < 0.0025 µM
